Assay: recombinant barcode read abundance after kanamycin selection (control-corrected) (log10(CPM+1)); higher = more efficient recombination; sequences stand for … in AGTGCAGAGAAAATCGGCCAGTTTTCTCTGCCTGCAGTCCGCATGCCGT…ATTTATGCAGCGGACTGCCTTTCTCCCAAAGTGATAAACCGGACAGTATCATGGACCGGTTTTCCCGGTAATCCGTATTTGCAAGGTTGGTTTCACT; site = the 11-nt target
Method in brief: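 Duplicate cultures were plated either on chloramphenicol/ampicillin LB agar, serving as control, or on chloramphenicol/ampicillin/kanamycin with 0.1 mM IPTG. These came from a pooled E. coli library co-electroporated with a donor plasmid, each member pairing a target with an IS621 bridge RNA target-binding loop. Recombination efficiency equals averaged, control-corrected counts per million of recombinant-junction barcodes. It is listed as log10(CPM+1).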

Row | Sequence | recombinant barcode read abundance (log10)
1 | GAGTCCATTTGGGTTCTAACCTGTTGCGTAG [GAGTCCACTAC_LTGcore_TT_RTGcore_CT] (site GAGTCCACTAC) (LTG core: TT, RTG core: CT) | 0.0725
2 | GAGTCCTAATGGGTTCTAACCTGTTGCCTAG [GAGTCCTCTAG_LTGcore_AA_RTGcore_CT] (site GAGTCCTCTAG) (LTG core: AA, RTG core: CT) | 0.149
3 | GAGTCCTAATGGGTTCTAACCTGTTGCCTTT [GAGTCCTCTAG_LTGcore_AA_RTGcore_AA] (site GAGTCCTCTAG) (LTG core: AA, RTG core: AA) | 0.11
4 | GAGTCCTCTTGGGTTCTAACCTGTTGCCTCA [GAGTCCTCTAG_LTGcore_CT_RTGcore_TG] (site GAGTCCTCTAG) (LTG core: CT, RTG core: TG) | 0.316
5 | GAGTCCTCTTGGGTTCTAACCTGTTGCCTCG [GAGTCCTCTAG_LTGcore_CT_RTGcore_CG] (site GAGTCCTCTAG) (LTG core: CT, RTG core: CG) | 1.19
6 | GAGTCCTCTTGGGTTCTAACCTGTTGCCTGT [GAGTCCTCTAG_LTGcore_CT_RTGcore_AC] (site GAGTCCTCTAG) (LTG core: CT, RTG core: AC) | 0.0922
7 | GAGTCCTGGTGGGTTCTAACCTGTTGCCTAG [GAGTCCTCTAG_LTGcore_GG_RTGcore_CT] (site GAGTCCTCTAG) (LTG core: GG, RTG core: CT) | 0.165
8 | GAGTCCTGTTGGGTTCTAACCTGTTGCCTAG [GAGTCCTCTAG_LTGcore_GT_RTGcore_CT] (site GAGTCCTCTAG) (LTG core: GT, RTG core: CT) | 0.165
9 | GAGTCCTTGTGGGTTCTAACCTGTTGCCTAG [GAGTCCTCTAG_LTGcore_TG_RTGcore_CT] (site GAGTCCTCTAG) (LTG core: TG, RTG core: CT) | 0.0483
10 | GCGCGACAGTGGGTTCTAACCTGTTGCTTCT [GCGCGACCTAA_LTGcore_AG_RTGcore_AG] (site GCGCGACCTAA) (LTG core: AG, RTG core: AG) | 0.313
11 | GCGCGACATTGGGTTCTAACCTGTTGCTTAG [GCGCGACCTAA_LTGcore_AT_RTGcore_CT] (site GCGCGACCTAA) (LTG core: AT, RTG core: CT) | 0.0488
12 | GCGCGACATTGGGTTCTAACCTGTTGCTTAT [GCGCGACCTAA_LTGcore_AT_RTGcore_AT] (site GCGCGACCTAA) (LTG core: AT, RTG core: AT) | 0.493
13 | GCGCGACCTTGGGTTCTAACCTGTTGCTTAG [GCGCGACCTAA_LTGcore_CT_RTGcore_CT] (site GCGCGACCTAA) (LTG core: CT, RTG core: CT) | 0.515
14 | GCGCGACGATGGGTTCTAACCTGTTGCTTTC [GCGCGACCTAA_LTGcore_GA_RTGcore_GA] (site GCGCGACCTAA) (LTG core: GA, RTG core: GA) | 0.0229
15 | GCGCGACTGTGGGTTCTAACCTGTTGCTTAG [GCGCGACCTAA_LTGcore_TG_RTGcore_CT] (site GCGCGACCTAA) (LTG core: TG, RTG core: CT) | 0.0192
16 | GCGCGACTTTGGGTTCTAACCTGTTGCTTAA [GCGCGACCTAA_LTGcore_TT_RTGcore_TT] (site GCGCGACCTAA) (LTG core: TT, RTG core: TT) | 0.108
17 | GCGGGACCGTGGGTTCTAACCTGTTGCCTCG [GCGGGACCTAG_LTGcore_CG_RTGcore_CG] (site GCGGGACCTAG) (LTG core: CG, RTG core: CG) | 0.248
18 | GCGGGACCTTGGGTTCTAACCTGTTGCCTAA [GCGGGACCTAG_LTGcore_CT_RTGcore_TT] (site GCGGGACCTAG) (LTG core: CT, RTG core: TT) | 1.15
19 | GCGGGACCTTGGGTTCTAACCTGTTGCCTAC [GCGGGACCTAG_LTGcore_CT_RTGcore_GT] (site GCGGGACCTAG) (LTG core: CT, RTG core: GT) | 0.997
20 | GCGGGACCTTGGGTTCTAACCTGTTGCCTAG [GCGGGACCTAG_LTGcore_CT_RTGcore_CT] (site GCGGGACCTAG) (LTG core: CT, RTG core: CT) | 2.64
21 | GCGGGACCTTGGGTTCTAACCTGTTGCCTAT [GCGGGACCTAG_LTGcore_CT_RTGcore_AT] (site GCGGGACCTAG) (LTG core: CT, RTG core: AT) | 1.68
22 | GCGGGACCTTGGGTTCTAACCTGTTGCCTCG [GCGGGACCTAG_LTGcore_CT_RTGcore_CG] (site GCGGGACCTAG) (LTG core: CT, RTG core: CG) | 1.7
23 | GCGGGACCTTGGGTTCTAACCTGTTGCCTGA [GCGGGACCTAG_LTGcore_CT_RTGcore_TC] (site GCGGGACCTAG) (LTG core: CT, RTG core: TC) | 0.0737

Row | Sequence | recombinant barcode read abundance (log10)
24 | GCGGGACCTTGGGTTCTAACCTGTTGCCTTG [GCGGGACCTAG_LTGcore_CT_RTGcore_CA] (site GCGGGACCTAG) (LTG core: CT, RTG core: CA) | 1.08
25 | GCGGGACGATGGGTTCTAACCTGTTGCCTAG [GCGGGACCTAG_LTGcore_GA_RTGcore_CT] (site GCGGGACCTAG) (LTG core: GA, RTG core: CT) | 0.171
26 | GCGGGACTATGGGTTCTAACCTGTTGCCTTA [GCGGGACCTAG_LTGcore_TA_RTGcore_TA] (site GCGGGACCTAG) (LTG core: TA, RTG core: TA) | 0.214
27 | GCGGGACTGTGGGTTCTAACCTGTTGCCTAG [GCGGGACCTAG_LTGcore_TG_RTGcore_CT] (site GCGGGACCTAG) (LTG core: TG, RTG core: CT) | 0.316
28 | GCGGGACTTTGGGTTCTAACCTGTTGCCTAA [GCGGGACCTAG_LTGcore_TT_RTGcore_TT] (site GCGGGACCTAG) (LTG core: TT, RTG core: TT) | 0.186
29 | GGACACCAATGGGTTCTAACCTGTTGCCTAG [GGACACCCTAG_LTGcore_AA_RTGcore_CT] (site GGACACCCTAG) (LTG core: AA, RTG core: CT) | 0.294
30 | GGACACCACTGGGTTCTAACCTGTTGCCTGT [GGACACCCTAG_LTGcore_AC_RTGcore_AC] (site GGACACCCTAG) (LTG core: AC, RTG core: AC) | 0.54
31 | GGACACCCATGGGTTCTAACCTGTTGCCTAG [GGACACCCTAG_LTGcore_CA_RTGcore_CT] (site GGACACCCTAG) (LTG core: CA, RTG core: CT) | 0.765
32 | GGACACCCATGGGTTCTAACCTGTTGCCTTG [GGACACCCTAG_LTGcore_CA_RTGcore_CA] (site GGACACCCTAG) (LTG core: CA, RTG core: CA) | 0.0906
33 | GGACACCCCTGGGTTCTAACCTGTTGCCTAG [GGACACCCTAG_LTGcore_CC_RTGcore_CT] (site GGACACCCTAG) (LTG core: CC, RTG core: CT) | 1.3
34 | GGACACCCGTGGGTTCTAACCTGTTGCCTCG [GGACACCCTAG_LTGcore_CG_RTGcore_CG] (site GGACACCCTAG) (LTG core: CG, RTG core: CG) | 0.314
35 | GGACACCCTTGGGTTCTAACCTGTTGCCTAT [GGACACCCTAG_LTGcore_CT_RTGcore_AT] (site GGACACCCTAG) (LTG core: CT, RTG core: AT) | 1.28
36 | GGACACCCTTGGGTTCTAACCTGTTGCCTCG [GGACACCCTAG_LTGcore_CT_RTGcore_CG] (site GGACACCCTAG) (LTG core: CT, RTG core: CG) | 0.306
37 | GGACACCCTTGGGTTCTAACCTGTTGCCTGA [GGACACCCTAG_LTGcore_CT_RTGcore_TC] (site GGACACCCTAG) (LTG core: CT, RTG core: TC) | 1.89
38 | GGACACCCTTGGGTTCTAACCTGTTGCCTGT [GGACACCCTAG_LTGcore_CT_RTGcore_AC] (site GGACACCCTAG) (LTG core: CT, RTG core: AC) | 0.442
39 | GGACACCGATGGGTTCTAACCTGTTGCCTAG [GGACACCCTAG_LTGcore_GA_RTGcore_CT] (site GGACACCCTAG) (LTG core: GA, RTG core: CT) | 0.0895
40 | GGACACCGGTGGGTTCTAACCTGTTGCCTAG [GGACACCCTAG_LTGcore_GG_RTGcore_CT] (site GGACACCCTAG) (LTG core: GG, RTG core: CT) | 0.255
41 | GGCTCCCAATGGGTTCTAACCTGTTGCGGAG [GGCTCCCCTCC_LTGcore_AA_RTGcore_CT] (site GGCTCCCCTCC) (LTG core: AA, RTG core: CT) | 0
42 | GGCTCCCACTGGGTTCTAACCTGTTGCGGAG [GGCTCCCCTCC_LTGcore_AC_RTGcore_CT] (site GGCTCCCCTCC) (LTG core: AC, RTG core: CT) | 0.149
43 | GGCTCCCACTGGGTTCTAACCTGTTGCGGGT [GGCTCCCCTCC_LTGcore_AC_RTGcore_AC] (site GGCTCCCCTCC) (LTG core: AC, RTG core: AC) | 0.143
44 | GGCTCCCAGTGGGTTCTAACCTGTTGCGGAG [GGCTCCCCTCC_LTGcore_AG_RTGcore_CT] (site GGCTCCCCTCC) (LTG core: AG, RTG core: CT) | 0.156
45 | GGCTCCCCTTGGGTTCTAACCTGTTGCGGAA [GGCTCCCCTCC_LTGcore_CT_RTGcore_TT] (site GGCTCCCCTCC) (LTG core: CT, RTG core: TT) | 0.164

Source: the supplement of paper PMC11208160
